We go through two molecules from patent publication US20190297888A1, “FUNGICIDAL COMPOUNDS AND MIXTURES FOR FUNGAL CONTROL IN CEREALS” (Dow AgroSciences LLC, priority 2016, published 2019).

Assay type in all cases: in vivo
For experiment [1], the system named is Puccinia triticina (PUCCRT). Briefly: Field assessment of Compound I and fluxapyroxad on brown rust of wheat (AUDPC % control). The settings on record: AUDPC-based, 5 field trials. An excerpt:
(§1) Treatments consisting of the compound of Formula I and fungicide compound fluxapyroxad against fungal diseases of wheat were applied either using individually or as a two-way mixture of fluxapyroxad with the compound of Formula I. The compound of Formula I was applied with Agnique BP-420 (50% w/w at 0.3% v/v) at 50, 75 and 100 g ai/ha and Imtrex (Fluxapyroxad 62.5 g/L) was applied at 50, 75 and 100 g ai/ha. Commercial standards used in the studies were Adexar (epoxiconazole+fluxapyroxad—125 g/L), applied at 1.2 and 1.6 L pr/ha, and Elatus Era (benzovindiflupyr+prothioconazole—225 g/L), applied at 1.0 L pr/ha.
Fungicidal treatments containing the compound of Formula I and fluxapyroxad, either individually or as a two-way mixture, were assessed against brown rust of wheat (PUCCRT) in five separate field trials. In all trials, fungicidal treatments were applied at B34-51 growth stages of winter wheat (TRZAW; ATOUDUR, MIRADOUX, IRIDIUM or MV Vanek variety) under natural infection of brown rust (protectant tests, approximately 0-8% infection on leaf 3 or 4 at application). All treatments were part of an experimental trial designed as a randomized complete block with four replications and plot sizes of approximately 2×2 m to 2×7.5 m. Fungicidal treatments were applied at a water volume of 200 L/ha, using a backpack plot sprayer (BKPKAIR or BKPCENG) with a FLATFAN or AIRASST Nozzle pressurized at 210-250 kPa.
(§2) Disease severity (percentage of visual diseased foliage on whole plot or leaves) in five field trials was recorded following EPPO PP1/26 guideline prescriptions. Area under the disease progress curve (AUDPC) was calculated for each plot in […] trials using the sets of recorded severity data. Relative AUDPC (% control based on AUDPC) was calculated as percent of the nontreated control. Final results for the control of brown rust of wheat by the compound of Formula I, fluxapyroxad and mixtures are reported as an average of the relative AUDPC calculated over all five field trials. Statistical analysis was done according to ANOVA and Tukey's test (p=0.10).

Experiment [2] concerns Zymoseptoria tritici (SEPTTR). Briefly: Field assessment of Compound I and fluxapyroxad on leaf blotch of wheat (AUDPC % control). The settings on record: AUDPC-based, 2 field trials.
Source text: as §1
Fungicidal treatments containing the compound of Formula I and fluxapyroxad, either individually or as a two-way mixture, were assessed against leaf spot of wheat (SEPTTR) in two separate field trials. In the first trial, fungicidal treatments were applied at B32 (curative, 12% infection at application on L4) growth stage of winter wheat (TRZAW, TOBAK variety). The treatments were part of an experimental trial designed as a randomized complete block with four replications and a plot of approximately 2×2 m. Treatments were applied at water volume of 200 L/ha, using a backpack plot sprayer (BCYAIR, FLATFANA nozzle) and pressurized at 220 kPa.
In the second trial, fungicidal treatments were applied at B33-39 (curative, 50% infection at application on L5) growth stages of winter wheat (TRZAW, Consort variety). The treatments were part of an experimental trial designed as a randomized complete block with four replications and a plot of approximately 1.5×14 m. Treatments were applied at water volume of 200 L/ha, using a backpack plot sprayer (BKPCKAIR, Flat fan nozzle) and pressurized at 210 kPa.
as §2, with “both” for “five”, “leaf spot” for “brown rust”, “both” for “all five”

Experiment [3] deals with Rhyncosporium secalis (RHYNSE). Briefly: Field assessment of Compound I and fluxapyroxad on leaf scald of barley (AUDPC % control). The settings on record: AUDPC-based, one field trial. As to the method:
Commercial standards used in the studies were Proline 275 (275 g ai/L Prothioconazole), applied at 150 g ai/ha, and SiltraXpro (200 g ai/L prothioconazole+60 g ai/[…] bixafen), applied at 195 g ai/ha.
Fungicidal treatments containing the compound of Formula I and fluxapyroxad, either individually or as a two-way mixture, were assessed against scald of barley (RHYNSE) in one field trial. In the trial, fungicidal treatments were applied at B37-39 growth stages of winter barley (HORVW, Maris Otter variety) under natural infection of barley scald (protectant test, approximately 1% infection on leaf 4 at application). All treatments were part of an experimental trial designed as a randomized complete block with four replications.
Disease severity (percentage of visual diseased foliage on whole plot or leaves) in the field trial was recorded following EPPO PP1/26 guideline prescriptions. Area under the disease progress curve (AUDPC) was calculated for each plot in the trial using the sets of recorded severity data. Relative AUDPC (% control based on AUDPC) was calculated as percent of the nontreated control. […] Statistical analysis was done according to ANOVA and Tukey's test (p=0.10).

As to `N#Cc1ccc(Oc2ccc(C(F)(F)C(O)(Cn3ncnc3S)c3ccc(F)cc3F)nc2)cc1` (stereo not drawn) [Compound I, 4-((6-(2-(2,4-difluorophenyl)-1,1-difluoro-2-hydroxy-3-(5-mercapto-1H-1,2,4-triazol-1-yl)propyl)pyridin-3-yl)oxy)benzonitrile], the “PUCCRT % Control” value in experiment [1] (rate 50 g ai/ha) stood at 86.0%; in experiment [1] (rate 75 g ai/ha) it was 90.0%; in experiment [1] (rate 100 g ai/ha), 93.4%. The “SEPTTR % Control” value in experiment [2] (rate 50 g ai/ha) came to 43.9%; in experiment [2] (rate 75 g ai/ha) it was 50.7%; in experiment [2] (rate 100 g ai/ha), 56.6%. Besides, the “RHYNSE % Control” value is recorded as 67.2% in experiment [3] (rate 75 g ai/ha), 61.3% in experiment [3] (rate 100 g ai/ha) and 81.1% in experiment [3] (rate 150 g ai/ha).
With `Cn1cc(C(=O)Nc2ccccc2-c2cc(F)c(F)c(F)c2)c(C(F)F)n1` [Fluxapyroxad, 3-(difluoromethyl)-1-methyl-N-(3′,4′,5′-trifluorobiphenyl-2-yl)pyrazole-4-carboxamide], the “PUCCRT % Control” value stood at 84.0% in experiment [1] (rate 50 g ai/ha), 94.0% in experiment [1] (rate 75 g ai/ha) and 95.3% in experiment [1] (rate 100 g ai/ha). Further, the “SEPTTR % Control” value in experiment [2] (rate 50 g ai/ha) stood at 47.4%; in experiment [2] (rate 75 g ai/ha) it was 60.9%; in experiment [2] (rate 100 g ai/ha), 66.4%. For the same molecule, the entries for the “RHYNSE % Control” value in experiment [3] (rate 45 g ai/ha), in experiment [3] (rate 62.5 g ai/ha) and in experiment [3] (rate 100 g ai/ha) were 78.7%, 77.2% and 95.7%, respectively.
